Measurements taken from patent US20190167724A1, “NEUROPROTECTIVE COMPOSITION, PREPARATION PROCESS THEREOF AND MEDICAL USES THEREOF” (priority 2017, published 2019).
Marks after values point to notes of the source that are not given here.

Tested on: 6-OHDA induced Parkinson's Disease-like Zebrafish Larvae Model
Experiment: Anti-Parkinson's Disease efficacy test in 6-OHDA zebrafish larvae model
Assay type: in vivo
Details: soaking at 1.5 μg/mL, co-treated with 6-OHDA

For `CN1Cc2c(N)cccc2C(c2ccccc2)C1` (centres unmarked) [Nomifensine], the “Anti-Parkinson's Disease Efficacy (Motility Increase Rate)” value was 40.9%* and the “Total Distance (mm) (Mean ± SE)” value (30 minutes, n = 10) was 2738 ± 165 mm.
